Assay results from the supplement of paper PMC10307832.

Each cell line was assayed with COc1cc(Nc2ncc(F)c(Nc3ccc4c(n3)NC(=O)C(C)(C)O4)n2)cc(OC)c1OC [R406] + COc1cccc2cc(-c3nc([C@H]4CC[C@H](C(=O)O)CC4)n4ncnc(N)c34)[nH]c12 [OSI-027] (partner 0.5 µM) (assay: relative viability (nuclei count vs DMSO), 5 days (fraction); higher = more cells survive). Settings: first compound 0.08 µM.
Outline: (§1)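 Each reported value is a median over duplicate plates. It expresses relative viability: treated-well nuclei count divided by vehicle-well nuclei count. Lung cancer cell lines in 1536-well plates were dosed by pin tool a day after seeding, alone with one drug or with a fixed anchor-drug dose plus five library-drug doses (not always all listed) in √10 steps, and nuclei were counted after 5 days.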

Cell Line	relative viability
NCI-H460	0.621
NCI-H727	0.712
NCI-H1734	0.604
NCI-H520	0.243
NCI-H2347	0.381
SW 1573	0.603
NCI-H1395	0.592
201T	0.974
NCI-H1915	0.619
HCC-827	0.771
LXF-289	0.805
NCI-H23	0.588
NCI-H650	0.453
CAL-12T	0.654
NCI-H1651	0.632
EPLC-272H	0.275

Same assay, conditions: first compound 0.253 µM

Cell Line	relative viability
HOP-62	0.958
HCC-44	0.662
SK-MES-1	0.649
LU99A	0.283
BEN	0.299
HARA	0.668
SW 900	0.874
HCC-78	0.385
NCI-H322M	0.514
LCLC-97TM1	0.586
NCI-H2009	0.729
A-427	0.523
NCI-H460	0.587
NCI-H727	0.829
NCI-H1734	0.684
NCI-H520	0.302
NCI-H2347	0.436
SW 1573	0.783
NCI-H1395	0.73
201T	0.762
NCI-H1915	0.708
HCC-827	0.778
LXF-289	0.84
NCI-H23	0.647
NCI-H650	0.553
CAL-12T	0.702
NCI-H1651	0.749
EPLC-272H	0.291

Same assay, conditions: first compound 0.8 µM

Cell Line	relative viability
HOP-62	0.854
HCC-44	0.599
SK-MES-1	0.714
LU99A	0.308
BEN	0.286
HARA	0.591
SW 900	0.75
HCC-78	0.397
NCI-H322M	0.602
LCLC-97TM1	0.618
NCI-H2009	0.747
A-427	0.508
NCI-H460	1.13
NCI-H727	0.641
NCI-H1734	0.647
NCI-H520	0.336
NCI-H2347	0.479
SW 1573	0.869
NCI-H1395	0.754
201T	0.705
NCI-H1915	0.581
HCC-827	0.826
LXF-289	0.931
NCI-H23	0.602
NCI-H650	0.465
CAL-12T	0.895
NCI-H1651	0.804
EPLC-272H	0.253

Same assay, conditions: first compound 2.53 µM

Cell Line	relative viability
HOP-62	0.64
HCC-44	0.293
SK-MES-1	0.341
LU99A	0.253
BEN	0.298
HARA	0.22
SW 900	0.113
HCC-78	0.386
NCI-H322M	0.348
LCLC-97TM1	0.221
NCI-H2009	0.301
A-427	0.245
NCI-H460	0.288
NCI-H727	0.304
NCI-H1734	0.381
NCI-H520	0.25
NCI-H2347	0.278
SW 1573	0.493
NCI-H1395	0.429
201T	0.683
HCC-827	0.611
LXF-289	0.377
NCI-H650	0.45
CAL-12T	0.133
NCI-H1651	0.621
EPLC-272H	0.203

Same assay, conditions: first compound 8 µM

Cell Line	relative viability
HOP-62	0.654
HCC-44	0.363
SK-MES-1	0.13
LU99A	0.276
BEN	0.281
HARA	0.198
SW 900	0.247
HCC-78	0.323
NCI-H322M	0.347
LCLC-97TM1	0.215
NCI-H2009	0.149
A-427	0.238
NCI-H460	0.111
NCI-H727	0.537
NCI-H1734	0.374
NCI-H520	0.188
NCI-H2347	0.253
SW 1573	0.224
NCI-H1395	0.424
201T	0.517
NCI-H1915	0.4
HCC-827	0.507
LXF-289	0.487
NCI-H23	0.269
NCI-H650	0.344
CAL-12T	0.209
NCI-H1651	0.286
EPLC-272H	0.229

What follows are cell lines tested with COc1cc(Nc2ncc(F)c(Nc3ccc4c(n3)NC(=O)C(C)(C)O4)n2)cc(OC)c1OC [R406] + N=C(N)NC(=N)NCCc1ccccc1 [Phenformin] (partner 250 µM) in the same assay as above. Settings: first compound 0.08 µM.
Outline: as §1

Cell Line	relative viability
HOP-62	0.661
HCC-44	0.15
SK-MES-1	0.645
LU99A	0.789
BEN	0.267
HARA	0.386
SW 900	0.53
HCC-78	0.544
NCI-H322M	0.709
LCLC-97TM1	0.351
NCI-H2009	0.47
A-427	0.382
NCI-H460	0.552
NCI-H727	0.529
NCI-H1734	0.374
NCI-H520	0.625
NCI-H2347	0.493
SW 1573	0.371
NCI-H1395	0.432
201T	0.416
NCI-H1915	0.359
HCC-827	0.436
LXF-289	0.517
NCI-H23	0.693
NCI-H650	0.416
CAL-12T	0.57
NCI-H1651	0.455
EPLC-272H	0.278

Same assay, conditions: first compound 0.253 µM

Cell Line	relative viability
HOP-62	0.783
HCC-44	0.22
SK-MES-1	0.685
LU99A	0.99
BEN	0.283
HARA	0.508
SW 900	0.662
HCC-78	0.751
NCI-H322M	0.721
LCLC-97TM1	0.407
NCI-H2009	0.501
A-427	0.335
NCI-H460	0.682
NCI-H727	0.644
NCI-H1734	0.483
NCI-H520	0.785
NCI-H2347	0.417
SW 1573	0.43
NCI-H1395	0.463
201T	0.483
NCI-H1915	0.388
HCC-827	0.401
LXF-289	0.543
NCI-H23	0.821
NCI-H650	0.498
CAL-12T	0.667
NCI-H1651	0.377
EPLC-272H	0.371

Same assay, conditions: first compound 0.8 µM

Cell Line	relative viability
HOP-62	0.631
HCC-44	0.196
SK-MES-1	0.706
LU99A	0.95
BEN	0.256
HARA	0.548
SW 900	0.792
HCC-78	0.842
NCI-H322M	0.853
LCLC-97TM1	0.379
NCI-H2009	0.487
A-427	0.316
NCI-H460	0.609
NCI-H727	0.622
NCI-H1734	0.407
NCI-H520	0.641
NCI-H2347	0.43
SW 1573	0.469
NCI-H1395	0.482
201T	0.431
NCI-H1915	0.404
HCC-827	0.439
LXF-289	0.533
NCI-H23	0.775
NCI-H650	0.463
CAL-12T	0.668
NCI-H1651	0.465
EPLC-272H	0.333

Same assay, conditions: first compound 2.53 µM

Cell Line	relative viability
HOP-62	0.71
HCC-44	0.18
SK-MES-1	0.583
LU99A	0.556
BEN	0.26
HARA	0.377
SW 900	0.189
HCC-78	0.611
NCI-H322M	0.582
LCLC-97TM1	0.251
NCI-H2009	0.333
A-427	0.171
NCI-H460	0.105
NCI-H1734	0.257
NCI-H520	0.28
NCI-H2347	0.26
SW 1573	0.263
NCI-H1395	0.394
201T	0.367
HCC-827	0.265
LXF-289	0.38
NCI-H650	0.295
CAL-12T	0.353
NCI-H1651	0.252
EPLC-272H	0.25

Same assay, conditions: first compound 8 µM

Cell Line	relative viability
HOP-62	0.658
HCC-44	0.127
SK-MES-1	0.349
LU99A	0.759
BEN	0.249
HARA	0.324
SW 900	0.215
HCC-78	0.392
NCI-H322M	0.275
LCLC-97TM1	0.351
NCI-H2009	0.185
A-427	0.134
NCI-H460	0.102
NCI-H727	0.423
NCI-H1734	0.202
NCI-H520	0.188
NCI-H2347	0.235
SW 1573	0.151
NCI-H1395	0.345
201T	0.351
NCI-H1915	0.278
HCC-827	0.215
LXF-289	0.4
NCI-H23	0.355
NCI-H650	0.337
CAL-12T	0.14
NCI-H1651	0.134
EPLC-272H	0.207
